In US11026972B2, “Methods for generating macrophages with enhanced cancer phagocytosis” (Georgia State University Research Foundation, Inc., priority 2016, dated 2021):

B1: IL-17: recombinant murine cytokine interleukin IL-17 (also known as IL-17A), PeproTech (protein, UniProt Q62386 26-158, looked up)
Interleukin-17A: AAIIPQSSACPNTEAKDFLQNVKVNLKVFNSLGAKVSSRRPSDYLNRSTSPWTLHRNEDPDRYPSVIWEAQCRHQRCVNAEGKLDHHMNSVLIQQEILVLKREPESCPFTFRVEKMLVGVGCTCVASIVRQAA

Legend:
[1] = tested on: cell surface LRP1 and CRT on PEMs; test: Macrophage cell surface CRT and LRP1 by FACS; assay type: cell-based, mouse; details: after treatment with phagocytic activation factor
Method: FIGS. 6A-6D include data related to our investigation of possible phagocytic receptors on macrophages for phagocytosing healthy self-cells. […] PEM (unstimulated) phagocytosis toward apoptotic B16 cells was tested in the presence of same antibodies and RAP as in A. Error bars are ±SEM. ***P<0.001 vs. phagocytosis in the presence of control IgG. […] PEMs, with or without (ctl.) treatment with LPS, IL-17, IL-6, or PMA, were labeled for cell surface LRP1 and CRT followed by FACS. Increased and decreased expressions were marked by arrows. […] Activated PEM phagocytosis toward RBCs was tested in the presence of antibodies against SR-A, Fc receptor Cd16/32 (10 μg/mL of each), inhibitors against SR-B (BLT1, 5 μM), dectin (laminarin, 100 μg/mL), complement (heparin, 40 U/mL), and antibody against Cd11b (10 μg/mL). Error bars are ±SEM. ***P<0.001 vs. the respective control without inhibition. Data presented in each panel represent at least three independent experiments with n≥4, if applicable.

Syk = Syk phosphorylation at Y519/520 in PEMs; assay type: cell-based, mouse
Method: FIGS. 5A-5H include data related to our experiments on the role of Syk in phagocytic activation. […] PEMs were treated with LPS and cytokines in the presence of various inhibitors. After washing, inhibitor-free macrophages were tested for phagocytosis toward RBCs. […] PEMs treated with LPS and activating cytokines, or together with IL-10, were tested for total Syk and phosphorylated Syk (Syk^pY, specific at Y519/520). FIG. 5D describes PMA-induced macrophages phagocytosis toward RBCs. WT and SIRPα^−/− PEMs were treated with PMA (37° C., 30 min) before testing phagocytosis toward RBCs. FIG. 5E is a schematic depiction of PKC-Syk-mediated macrophage phagocytic activation toward self. […] Left: Inhibition of Syk by piceatannol and R406 prevented PMA-induced phagocytic activation. […] Error bars are ±SEM. ***P<0.001 vs. the respective controls. […] LPS-treated WT PEMs were further briefly treated with pervanadate before testing for phagocytosis toward RBCs. Error bars are ±SEM. ***P<0.001 vs. the respective controls. […] Data presented in each panel represent at least three independent experiments with n≥4, if applicable.
Multiple pharmacological inhibitors were tested for their effects on LPS and cytokine-induced activation of macrophage phagocytosis toward self. […] For example, inhibition of JAKs blocked IL-6 and IL-17, but not LPS and TNFα, for activation of PEM phagocytosis. […]

B16 melanoma = B16 melanoma pulmonary metastases model; assay type: in vivo, mouse; details: SIRPα^−/− mice
Method: Mouse models of B16 melanoma: B16-F10 melanoma cells (American Type Culture Collection) were cultured in DMEM with 8% FBS. B16 melanoma pulmonary metastases were established by intravenous (i.v.) injection of B16 cells (5×10^5, >95% viability) suspended in 100 μl PBS through the tail vein. The mice were allowed to live to reach humane endpoints or sacrificed on day 15 post B16 inoculation for analyses of melanoma formation in the lungs and other organs. To test macrophage eradication of B16 in vivo, recombinant murine IL-17 (20 μg) was given a day after the B16 implantation and then again two additional administrations three and six days later (total 3 administrations). For SIRPα^−/− mice survived first B16 injection, B16 cells (5×10^5) were injected (i.v.) once again three months without further IL-17 administration. […] For serum treatment, WT mice with B16 inoculation were given serum samples (150 μl, every three days, 3×) derived from control mice or B16-eradicated SIRPα^−/− mice. In other experiments, 2×10^7 splenocytes from control mice or B16-eradicated SIRPα^−/− mice were transferred into WT mice. After 10 days, B16 cells were inoculated into the recipient mice and melanoma development was examined.

Molecule	cell surface CRT or LRP1 on PEMs [1]	Syk phosphorylation (Syk^PY, Y519/520) (Syk)	B16 melanoma (B16 melanoma)
lipopolysaccharide [LPS]	induced an increase in CRT	increases in Syk^PY	
B1			eliminated B16 melanoma
